# Reference: patent US12583911B2, “Human immunodeficiency virus GP120 binding proteins” (ViiV Healthcare UK (No.5) Limited, priority 2022, dated 2026)
# pEC50, pIC50: −log10 of the molar value.
# Key:
# [1] = Melting temperature (Tm) of soluble CD4 domains, Prometheus System; format: physicochemical; details: soluble CD4 domain with C-terminal 6xHis tag
# Description: The best performing variants (SEQ ID NOs: 5-21) were fused with 6×His tag at their C-termini, expressed and purified from mammalian cells using methods as described in Example 1, except that purification was via a Ni-NTA resin (Cytiva, Marlborough MA) instead of Mabselect SuRe column, with standard protocol from the vendor.
# These purified CD4 D1 variants (with C-terminal 6xHis tag) were then evaluated to determine their melting temperature (Tm, using Prometheus System, NanoTemper, München Germany), which indicates thermal stability, as well as their anti-viral activity against HIV-1 pseudotyped virus (see Example 2 above for methods using ACTOne cells).
# [2] = tested on: panel of HIV-1 envelopes (pseudotyped HIV-1 virus); assay: PSV assay (ACTOne cells), HIV-1 envelopes; format: cell-based
# Description: (§1) The anti-viral activity of the antigen binding proteins was measured in a pseudotyped virus (PSV) assay.
# (§2) PSV was produced in HEK-293T cells (ATCC, Manassas VA) by co-transfecting expression plasmids encoding the HIV-1 gp160 envelope gene and an HIV-1 backbone plasmid using TRANSIT-2020 transfection reagent (Mirus Bio, Madison WI). A panel of HIV-1 PSVs expressing different gp160 envelope trimers was generated to evaluate the effectiveness of the antigen binding proteins of the invention against a wide spectrum of HIV-1 strains.
# (§3) The genome of PSV used in this assay contains a luciferase gene that is expressed once the virus enters cells. Accordingly, the luminescence signal (after adding a substrate of luciferase) can be used to determine the level of viral infection.
# (§4) The 50% tissue culture infectious dose (TCID) of a single thawed aliquot of each batch of PSV was determined in ACTOne cells. The ACTOne cell-line used in this assay was derived in-house from a genetically engineered 293T cell clone that expresses CD4, CXCR4, and CCR5. Cells were maintained in growth medium composed of Dulbecco's modified Eagle's medium (DMEM, Life Technologies) at 37° C. in a humidified 5% CO2-95% air environment. Cell monolayers were split by treatment with Trypsin-EDTA (0.05%).
# (§5) To run the anti-viral assay, ACTOne cells were detached by treating the cell culture flask with trypsin (trypsinization) and resuspended in growth medium containing 2% of DMSO to a density of 2.5×10^5 cells/ml. One hundred μl of such cells was added to 10 μl of antigen binding protein pre-loaded in a 96-well plate. Ninety μl of PSV was then added to each well. The assay plates were incubated at 37° C. in a humidified incubator at 5% CO2 level. Plates were developed after 72 hours of incubation by adding 50 μl of BRIGHTGLO luciferase reagent (Promega, Madison WI) to each well, and transferring the plates to an ENVISION multilabel plate reader (PerkinElmer, Waltham MA) to measure the luminescence and determine the level of virus that had infected the cells. The higher the luminescence signal, the higher the level of infection.
# [3] = tested on: HIV-2 Env-pseudotypes (HIV-2-AID, HIV-2-ATM88, HIV-2-HCC-01); assay: PSV assay (ACTOne cells), HIV-2 envelopes; format: cell-based
# Description: as §1, §2, §3, §4, §5
# HIV-2 differs from HIV-1 in that it originates from the transmission of simian immunodeficiency virus (SIV) from sooty mangabeys (SIVsmm) to human (Gao et al, J Virol. 1994; 68 (11): 7433-7447) whilst HIV-1 stems from the transmission from chimpanzees and western gorillas (HIV-1 group M and O, respectively). HIV-2 can also cause AIDS but is far less pathogenic and wide-spread than HIV-1 (de Silva et al, Trends Microbiol. 2008; 16 (12): 588-595; Da Silva et al, AIDS. 2008; 22 (10): 1195-1202). Though also using CD4 for infection (Sattentau et al, AIDS. 1988; 2 (2): 101-105), HIV-2 shares only 40% identity in the gp160 amino acid sequence with HIV-1, and is therefore less sensitive or insensitive to HIV-1 envelope-directed bnAbs (Kong et al, JVI 2012; 86 (2): 947-960).
# HIV NL4-3 virus = assay: In vitro resistance barrier (viral breakthrough in MT2 cells); format: cell-based, HIV-1; details: HIV NL4-3 in MT2 cells
# Description: To assess the resistance barrier of the bispecific molecules, we examined the relative rates at which HIV NL4-3 virus can escape inhibition by a panel of antibodies versus a DMSO control.
# MT2 cells (2.0×10^5/well in RPMI 1640+[…] penicillin and streptomycin+10 mM HEPES buffer pH 7.55+2 mM L-glutamine. +0.2% DMSO) were pre-infected at an MOI (multiplicity of infection) of 0.005 for 2.5 hours and then pelleted to remove unbound virus particles. One mL of infected cells was added to each well of a 24 well plate.
# Every 3-4 days images of the wells were captured and 1 ml of each well is removed and replaced by fresh preparations of each condition. This process was continued until there was viral breakthrough (observed cytopathic effect (CPE)>80%) or until there was a confirmed elimination of infected cells (via challenged elimination). When either condition was achieved, the sample was collected as pellet and supernatant (via centrifugation) and stored at −80° C. until genotypic analysis was performed to confirm the presence of resistance mutations. The days from infection to breakthrough were used to estimate the resistance barrier of a certain molecule. The longer it takes the virus to develop CPE, which indicates resistance, the higher the resistance barrier is.
# [4] = tested on: NL4-3 (NLRepRluc replicating reporter virus); assay: Replicating virus assay using NLRepRluc virus (NL4-3) in MT-2 cells; format: cell-based, HIV-1; details: NL4-3, replicating virus assay
# Excerpt: All clinical and laboratory isolates were originally obtained from the NIH AIDS Reagent Program (currently NIH HIV Reagent Program, https:hivreagentprogram.org/). The proviral clone of NL4-3 (obtained from NIH) was used to make the replicating reporter virus NLRepRluc, in which a section of the nef gene from the proviral clone of NL4-3 was replaced with the Renilla luciferase gene. Virus was produced through transfection of HEK293T cells using Lipofectamine Plus (Invitrogen, Carlsbad, CA), according to the manufacturer's instructions. […]
# The NLRepRluc was used to infect MT-2 cells at a multiplicity of 0.01 for 1 hour before adding the proteins to the 96-well plates. […] After 4 days of incubation, cells were processed and quantitated for virus growth by the amount of expressed luciferase. Luciferase was quantitated using the ENDUREN substrate from Promega (Madison, WI) according to the manufacturer's instructions. Luciferase activity was measured immediately on an ENVISION multilabel plate reader (PerkinElmer, Waltham MA). EC50 values were calculated by comparing the amount of luciferase produced in the presence of antigen binding protein compared to wells where no antigen binding protein (DMSO control) was added. […]
# [5] = envelope CAP45.2.00.G3, PSV assay
# [6] = envelope HIV-2-AID, PSV assay, ACTOne cells
# [7] = envelope HIV-2-ATM88, PSV assay
# [8] = envelope HIV-2-HCC-01, PSV assay
# [9] = envelope X1632_S2_B10, PSV assay
substance,measurement,setting,value
"D1m-E13C-I70C: soluble CD4 D1 variant of mD1.22 with E13C and I70C, SEQ ID NO:13, 6xHis tagged",Tm (° C.),[1],78.8 °C
"D1m-E87G: soluble CD4 D1 variant of mD1.22 with E87G, SEQ ID NO:8, 6xHis tagged [Molecule D1m-E87G]",Tm (° C.),[1],71.9 °C
"D1m-E91H: soluble CD4 D1 variant of mD1.22 with E91H, SEQ ID NO:7, 6xHis tagged [Molecule D1m-E91H]",Tm (° C.),[1],72.6 °C
"D1m-E91Q: soluble CD4 D1 variant of mD1.22 with E91Q, SEQ ID NO:6, 6xHis tagged [Molecule D1m-E91Q]",Tm (° C.),[1],72.4 °C
"D1m-H27C-G38C: soluble CD4 D1 variant of mD1.22 with H27C and G38C, SEQ ID NO:14, 6xHis tagged",Tm (° C.),[1],90.1 °C
"D1m-K8C-G99C: soluble CD4 D1 variant of mD1.22 with K8C and G99C, SEQ ID NO:11, 6xHis tagged [Molecule D1m-K8C-G99C]",Tm (° C.),[1],88.8 °C
"D1m-K8C-G99C_Fc: CD4 D1m-K8C-G99C domain fused to human Fc, SEQ ID NO:158; CD4 control",pIC50,"[2]; envelope 93UG065, PSV assay",6.85
same,pIC50,"[2]; envelope 246F3, PSV assay",8.37
same,pIC50,"[2]; envelope 0260.v5.c36, PSV assay",6.92
same,pIC50,"[2]; envelope 398F1, PSV assay",7.04
same,pIC50,"[2]; envelope 928_28, PSV assay",9.11
same,pIC50,[2]; envelope 3326_V4_C3,< 6.30
same,pIC50,"[2]; envelope 3326_V4_C3, PSV assay",< 6.30
same,pIC50,[2]; envelope 3468_V1_C12,7.19
same,pIC50,"[2]; envelope 3468_V1_C12, PSV assay",7.19
same,pIC50,[2]; envelope 3637_V5_C3,< 6.30
same,pIC50,"[2]; envelope 3637_V5_C3, PSV assay",< 6.30
same,pIC50,"[2]; envelope 6471_V1_C16, PSV assay",8.29
same,pIC50,"[2]; envelope 25710, PSV assay",8.88
same,pIC50,[2]; envelope 42368,8.80
same,pIC50,"[2]; envelope 42368, PSV assay",8.80
same,pIC50,"[2]; envelope 620345_C1, PSV assay",7.00
same,pIC50,"[2]; envelope BJOX2000, PSV assay",8.63
same,pIC50,[2]; envelope CAP45.2.00.G3,7.69
same,pIC50,[2]; [5],7.69
same,pIC50,[2]; envelope CC1/85,8.70
same,pIC50,"[2]; envelope CC1/85, PSV assay",8.70
same,pIC50,"[2]; envelope CE0217, PSV assay",8.60
same,pIC50,"[2]; envelope CE1176, PSV assay",8.37
same,pIC50,"[2]; envelope CH119, PSV assay",8.49
same,pIC50,"[2]; envelope CNE8, PSV assay",6.46
same,pIC50,"[2]; envelope CNE55, PSV assay",7.38
same,pIC50,"[2]; envelope JR-CSF, PSV assay",8.26
same,pIC50,"[2]; envelope JRFL, PSV assay",8.95
same,pIC50,[2]; envelope Q461_E2,7.93
same,pIC50,"[2]; envelope Q461_E2, PSV assay",7.93
same,pIC50,[2]; envelope T278.50,8.84
same,pIC50,"[2]; envelope T278.50, PSV assay",8.84
same,pIC50,"[2]; envelope TH976_17, PSV assay",7.41
same,pIC50,"[2]; envelope TRO11, PSV assay",6.83
same,pIC50,"[2]; envelope X1632, PSV assay",8.74
same,pIC50,[2]; envelope X2088.C9,8.04
same,pIC50,"[2]; envelope X2088.C9, PSV assay",8.04
same,pIC50,"[2]; envelope X2278, PSV assay",7.35
same,pIC50,"[2]; envelope YU-2, PSV assay",9.70
same,pIC50,[2]; envelope ZM106.9,7.82
same,pIC50,"[2]; envelope ZM106.9, PSV assay",7.82
same,pIC50,[3]; [6],7.61
same,pIC50,[3]; [7],8.57
same,pIC50,"[3]; envelope HIV-2-HCC-01, ACTOne cells",< 6.52
same,pIC50,[3]; [8],< 6.52
"D1m-K8I: soluble CD4 D1 variant of mD1.22 with K8I, SEQ ID NO:10, 6xHis tagged [Molecule D1m-K8I]",Tm (° C.),[1],75.9 °C
"D1m-K8V: soluble CD4 D1 variant of mD1.22 with K8V, SEQ ID NO:5, 6xHis tagged [Molecule D1m-K8V]",Tm (° C.),[1],77.1 °C
"D1m-K21C-G65C: soluble CD4 D1 variant of mD1.22 with K21C and G65C, SEQ ID NO:15, 6xHis tagged",Tm (° C.),[1],80.1 °C
"D1m-N52W: soluble CD4 D1 variant of mD1.22 with N52W, SEQ ID NO:9, 6xHis tagged [Molecule D1m-N52W]",Tm (° C.),[1],72 °C
"D1m-T11C-K72C: soluble CD4 D1 variant of mD1.22 with T11C and K72C, SEQ ID NO:12, 6xHis tagged",Tm (° C.),[1],79.9 °C
"D1mD2_His: soluble CD4 D1D2 variant mD1.22-D2 (SEQ ID NO:2) plus C-terminal 6xHis tag [Molecule D1mD2_His, reference compound]",pIC50,"[2]; envelope 42368, PSV assay",8.14
same,pIC50,"[2]; envelope BJOX2000, PSV assay",7.48
same,pIC50,[2]; [5],< 6.30
same,pIC50,"[2]; envelope CH119, PSV assay",6.92
same,pIC50,"[2]; envelope HXB2, PSV assay",10.15
same,pIC50,"[2]; envelope LAI, PSV assay",8.27
same,pIC50,"[2]; envelope NL4-3, PSV assay",9.13
same,pIC50,"[2]; envelope T278.50, PSV assay",7.80
same,pIC50,"[2]; envelope TRO11, PSV assay",7.76
same,pIC50,[2]; [9],7.83
"D1m_His: soluble human CD4 D1 variant mD1.22 (SEQ ID NO:4) plus C-terminal 6xHis tag [Molecule D1m_His, reference compound]",pIC50,"[2]; envelope 42368, PSV assay",8.36
same,pIC50,"[2]; envelope BJOX2000, PSV assay",7.15
same,pIC50,[2]; [5],6.88
same,pIC50,"[2]; envelope CC1/85, PSV assay",8.15
same,pIC50,"[2]; envelope CH119, PSV assay",7.04
same,pIC50,"[2]; envelope LAI, PSV assay",8.06
same,pIC50,"[2]; envelope T278.50, PSV assay",8.40
same,pIC50,"[2]; envelope TRO11, PSV assay",7.16
same,pIC50,[2]; [9],7.79
same,pIC50,"[2]; envelope ZM106.9, PSV assay",7.58
same,pIC50,[3]; [6],6.98
same,pIC50,[3]; [7],8.41
same,pIC50,[3]; [8],< 6.30
same,Tm (° C.),[1],68.2 °C
same,Average days before CPE,HIV NL4-3 virus; group 20x EC50,4 days
same,Average days before CPE,HIV NL4-3 virus; group 30x EC50,5 days
same,Average days before CPE,HIV NL4-3 virus; group 40x EC50,7 days
same,pEC50,[4],9.64
